Experimental findings from the supplement of paper PMC11368000 are described below.

The test system of the first assay is 1565 (donor line of iPSC-derived cardiomyocytes). Description: POD (EC05) for decrease in beat frequency (negative chronotrope) vs vehicle; higher = less potent (higher point of departure). The settings on record: exposure time: 90 min. A digest of the protocol: (§1)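 Ca2+ flux in human iPSC-derived cardiomyocytes from 16 donors was recorded on a FLIPR Tetra for 100 s before and after a 90 min exposure at 37 °C to 0.1, 1, 10 and 100 µM (final, 0.5% DMSO). Donor-specific points of departure came from hierarchical Bayesian Hill fits to vehicle-normalised beat frequency, decay-to-rise ratio or peak frequency. A 5% change served as threshold, except for peak frequency, where it was a 95% loss.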
`OCC(F)(F)C(F)(F)C(F)(F)C(F)(F)C(F)(F)C(F)(F)F` [6:1 Fluorotelomer alcohol] came in with a POD vs vehicle above 100 µM.

`OCCC(F)(F)C(F)(F)C(F)(F)C(F)(F)C(F)(F)C(F)(F)F` [6:2 Fluorotelomer alcohol] had a POD vs vehicle above 100 µM.

The compound `O=S(=O)(O)CCC(F)(F)C(F)(F)C(F)(F)C(F)(F)C(F)(F)C(F)(F)F` [6:2 Fluorotelomer sulfonic acid] registered a POD vs vehicle of 39.6 µM.

Compound `OCCC(F)(F)C(F)(F)C(F)(F)C(F)(F)C(F)(F)C(F)(F)C(F)(F)C(F)(F)F` [8:2 Fluorotelomer alcohol] displayed a POD vs vehicle above 100 µM.

As to `O=S(=O)(O)CCC(F)(F)C(F)(F)C(F)(F)C(F)(F)C(F)(F)C(F)(F)C(F)(F)C(F)(F)F` [8:2 Fluorotelomer sulfonic acid], the POD vs vehicle is 9.96 µM.

For `O=C(O)C(F)(F)C(F)(F)C(F)(F)C(F)(F)C(F)(F)C(F)(F)C(F)(F)C(F)(F)Cl` [9-Chloro-perfluorononanoic_acid], the POD vs vehicle is above 100 µM.

As for `O=P(O)(O)CCC(F)(F)C(F)(F)C(F)(F)C(F)(F)C(F)(F)C(F)(F)C(F)(F)C(F)(F)F` [((Perfluorooctyl)ethyl)phosphonic_acid], the POD vs vehicle was above 100 µM.

As to `OCC(F)(F)C(F)(F)C(F)(F)C(F)(F)C(F)(F)C(F)F` [Dodecafluoroheptanol], the POD vs vehicle was 20.3 µM.

Regarding `OCC(F)(F)C(F)(F)C(F)(F)F` [Heptafluorobutanol], the POD vs vehicle is above 100 µM.

`NC(=O)C(F)(F)C(F)(F)C(F)(F)F` [Heptafluorobutyramide]: the POD vs vehicle is above 100 µM.

As for `OCC(F)(F)C(F)(F)C(F)(F)CO` [Hexafluoroamylene_glycol], the POD vs vehicle is above 100 µM.

`COC(=O)C(F)(F)C(F)(F)OC(F)(C(F)(F)F)C(F)(F)OC(F)=C(F)F` (configuration not stated) [Methyl_perfluoro(3-(1-ethenyloxypropan-2-yloxy)propanoate)] returned a POD vs vehicle above 100 µM.

Regarding `NC(=O)C(F)(F)C(F)(F)C(F)(F)C(F)(F)F` [Nonafluoropentanamide], the POD vs vehicle was above 100 µM.

In the case of `NC(=O)C(F)(F)C(F)(F)C(F)(F)C(F)(F)C(N)=O` [Octafluoroadipamide], the POD vs vehicle was above 100 µM.

In turn, `O=C(O)C(F)(F)C(F)(F)C(F)(F)C(F)(F)C(=O)O` [Octafluoroadipic_acid] registered a POD vs vehicle above 100 µM.

The compound `O=C(O)C(F)(F)C(F)(F)C(F)(F)OC(F)(F)F` [Perfluoro(4-methoxybutanoic)_acid] had a POD vs vehicle above 100 µM.

In turn, `O=C(O)C(F)(F)OC(F)(F)C(F)(F)OC(F)(F)C(F)(F)OC(F)(F)C(F)(F)C(F)(F)C(F)(F)F` [Perfluoro-3,6,9-trioxatridecanoic_acid] gave a POD vs vehicle above 100 µM.

As to `O=C(O)C(F)(F)OC(F)(F)C(F)(F)OC(F)(F)F` [Perfluoro-3,6-dioxaheptanoic_acid], the POD vs vehicle is above 100 µM.

For `O=C(O)C(F)(F)OC(F)(F)C(F)(F)OC(F)(F)C(=O)O` [Perfluoro-3,6-dioxaoctane-1,8-dioic_acid], the POD vs vehicle is above 100 µM.

The subject of a further assay is 1516 (donor line of iPSC-derived cardiomyocytes). The assay is described as above. The conditions noted are these: exposure time: 90 min. The method in brief:
as §1
On to `OCC(F)(F)C(F)(F)C(F)(F)C(F)(F)C(F)(F)C(F)(F)F` [6:1 Fluorotelomer alcohol], for which the POD vs vehicle was above 100 µM.

As to `OCCC(F)(F)C(F)(F)C(F)(F)C(F)(F)C(F)(F)C(F)(F)F` [6:2 Fluorotelomer alcohol], the POD vs vehicle is above 100 µM.

In the case of `O=S(=O)(O)CCC(F)(F)C(F)(F)C(F)(F)C(F)(F)C(F)(F)C(F)(F)F` [6:2 Fluorotelomer sulfonic acid], the POD vs vehicle came to 33.5 µM.

In turn, `OCCC(F)(F)C(F)(F)C(F)(F)C(F)(F)C(F)(F)C(F)(F)C(F)(F)C(F)(F)F` [8:2 Fluorotelomer alcohol] showed a POD vs vehicle above 100 µM.

For `O=S(=O)(O)CCC(F)(F)C(F)(F)C(F)(F)C(F)(F)C(F)(F)C(F)(F)C(F)(F)C(F)(F)F` [8:2 Fluorotelomer sulfonic acid], the POD vs vehicle is 6.6 µM.

In turn, `O=C(O)C(F)(F)C(F)(F)C(F)(F)C(F)(F)C(F)(F)C(F)(F)C(F)(F)C(F)(F)Cl` [9-Chloro-perfluorononanoic_acid] came in with a POD vs vehicle of 14.9 µM.

`O=P(O)(O)CCC(F)(F)C(F)(F)C(F)(F)C(F)(F)C(F)(F)C(F)(F)C(F)(F)C(F)(F)F` [((Perfluorooctyl)ethyl)phosphonic_acid]: the POD vs vehicle was above 100 µM.

As for `OCC(F)(F)C(F)(F)C(F)(F)C(F)(F)C(F)(F)C(F)F` [Dodecafluoroheptanol], the POD vs vehicle is 18.9 µM.

With `OCC(F)(F)C(F)(F)C(F)(F)F` [Heptafluorobutanol], the POD vs vehicle was above 100 µM.

The compound `NC(=O)C(F)(F)C(F)(F)C(F)(F)F` [Heptafluorobutyramide] returned a POD vs vehicle above 100 µM.

`OCC(F)(F)C(F)(F)C(F)(F)CO` [Hexafluoroamylene_glycol] registered a POD vs vehicle above 100 µM.

Take `COC(=O)C(F)(F)C(F)(F)OC(F)(C(F)(F)F)C(F)(F)OC(F)=C(F)F` (configuration not stated) [Methyl_perfluoro(3-(1-ethenyloxypropan-2-yloxy)propanoate)]: the POD vs vehicle is above 100 µM.

Compound `NC(=O)C(F)(F)C(F)(F)C(F)(F)C(F)(F)F` [Nonafluoropentanamide] showed a POD vs vehicle above 100 µM.

`NC(=O)C(F)(F)C(F)(F)C(F)(F)C(F)(F)C(N)=O` [Octafluoroadipamide] displayed a POD vs vehicle above 100 µM.

The compound `O=C(O)C(F)(F)C(F)(F)C(F)(F)C(F)(F)C(=O)O` [Octafluoroadipic_acid] came in with a POD vs vehicle above 100 µM.

Turning to `O=C(O)C(F)(F)C(F)(F)C(F)(F)OC(F)(F)F` [Perfluoro(4-methoxybutanoic)_acid], the POD vs vehicle is above 100 µM.

Turning to `O=C(O)C(F)(F)OC(F)(F)C(F)(F)OC(F)(F)C(F)(F)OC(F)(F)C(F)(F)C(F)(F)C(F)(F)F` [Perfluoro-3,6,9-trioxatridecanoic_acid], the POD vs vehicle is 22.2 µM.

Turning to `O=C(O)C(F)(F)OC(F)(F)C(F)(F)OC(F)(F)F` [Perfluoro-3,6-dioxaheptanoic_acid], the POD vs vehicle was above 100 µM.

Compound `O=C(O)C(F)(F)OC(F)(F)C(F)(F)OC(F)(F)C(=O)O` [Perfluoro-3,6-dioxaoctane-1,8-dioic_acid] came in with a POD vs vehicle above 100 µM.

For another assay, the system named is 20084 (donor line of iPSC-derived cardiomyocytes). The description is as above. The conditions noted are these: exposure time: 90 min. The method in brief:
as §1
For `OCC(F)(F)C(F)(F)C(F)(F)C(F)(F)C(F)(F)C(F)(F)F` [6:1 Fluorotelomer alcohol], the POD vs vehicle was above 100 µM.

`OCCC(F)(F)C(F)(F)C(F)(F)C(F)(F)C(F)(F)C(F)(F)F` [6:2 Fluorotelomer alcohol]: the POD vs vehicle is above 100 µM.

Consider `O=S(=O)(O)CCC(F)(F)C(F)(F)C(F)(F)C(F)(F)C(F)(F)C(F)(F)F` [6:2 Fluorotelomer sulfonic acid], for which the POD vs vehicle was above 100 µM.

In turn, `OCCC(F)(F)C(F)(F)C(F)(F)C(F)(F)C(F)(F)C(F)(F)C(F)(F)C(F)(F)F` [8:2 Fluorotelomer alcohol] registered a POD vs vehicle above 100 µM.

`O=S(=O)(O)CCC(F)(F)C(F)(F)C(F)(F)C(F)(F)C(F)(F)C(F)(F)C(F)(F)C(F)(F)F` [8:2 Fluorotelomer sulfonic acid] returned a POD vs vehicle of 0.768 µM.

In turn, `O=C(O)C(F)(F)C(F)(F)C(F)(F)C(F)(F)C(F)(F)C(F)(F)C(F)(F)C(F)(F)Cl` [9-Chloro-perfluorononanoic_acid] gave a POD vs vehicle above 100 µM.

With `O=P(O)(O)CCC(F)(F)C(F)(F)C(F)(F)C(F)(F)C(F)(F)C(F)(F)C(F)(F)C(F)(F)F` [((Perfluorooctyl)ethyl)phosphonic_acid], the POD vs vehicle was above 100 µM.

Compound `OCC(F)(F)C(F)(F)C(F)(F)C(F)(F)C(F)(F)C(F)F` [Dodecafluoroheptanol] returned a POD vs vehicle of 19.3 µM.

`OCC(F)(F)C(F)(F)C(F)(F)F` [Heptafluorobutanol] gave a POD vs vehicle above 100 µM.
